Patent US11351218B2, “Composition for preventing or treating glioblastoma comprising Platycodon grandiflorum A. De Candolle, Scutellaria baicalensis, Phellodendron amurense Ruprecht or Rubus coreanus” (University-Industry Cooperation Group of Kyung Hee …, priority 2019, dated 2022)

How the values were obtained:
Format in all cases: cell-based, human
SQSTM1 mRNA = experiment: RT-PCR of SQSTM1 (p62) mRNA in GBM cells; details: PD 5 μM and 10 μM, 24 hours, both GBM cells
Protocol: FIGS. 3A to 3C show the results that PD inhibits autophagic flux in GBM cells. […] The expression of LC3B and SQSTM1 was confirmed by immunoblot analysis. […] GAPDH was used as a loading control.
Total RNA was isolated using the Easy-Blue RNA extraction kit (iNtRON Biotech, Sungnam, Korea) according to the manufacturer's directions. 1 μg of the total RNA was reverse transcribed using a cDNA synthesis kit (TaKaRa, Otsu, Shinga, Japan) according to the manufacturer's instructions. The obtained cDNA was then amplified by PCR in a reaction mixture consisting of 10× Taq buffer, 2.5 mM dNTP mixture, Taq DNA polymerase (Takara), and corresponding primer sets. The primer sequences were as follows. Human SQSTM1-forward: 5′-GAACTCCAGTCCCTACAGATGCC-3′ (SEQ ID NO: 1), SQSTM1-reverse: 5′-CGGGAGATGTGGGTACAAGG 2-3′ (SEQ ID NO: 2); Human LDLR-forward: 5′-CAG ATA TCA TCA ACG AAG C-3′ (SEQ ID NO: 3), LDLR-reverse: 5′-CCTCTCACACCAGTTCACTCC-3′ (SEQ ID NO: 4); Human GAPDH-forward: 5′-CGTCTTCACCACCATGGAGA-3′ (SEQ ID NO: 5), GAPDH—reverse: 5′-CGGCCATCACGCCACAGTTT-3′ (SEQ ID NO: 6). The PCR products were analyzed by 1.5% agarose gels.

U87MG and U373MG cells [1] = experiment: Immunofluorescence of SQSTM1/p62 with GFP-LC3B in GBM cells; details: PD 10 μM or BafA1 (100 μM), 24 hours
Protocol: The cells expressing GFP-LC3B (green) were treated with DMSO, PD (10 μM), or BafA1 (100 μM) for 24 hours, followed by staining with an anti-SQSTM1 antibody (red) and DAPI (blue). The merged images (yellow) indicate co-localization between LC3 and p62. The panels on the right are higher-magnification images of the boxed regions.
Cultured cells seeded in plates with microscope coverslips were transfected with a pGFP-LC3B plasmid using Lipofectamine 3000 (Thermo Fisher Scientific) according to the manufacturer's instructions. After the transfection, the cells were fixed with 4% paraformaldehyde (PFA) in phosphate-buffered saline (PBS) at room temperature for 10 minutes. The images were examined under a laser confocal microscope (Zeiss, Oberkochen, Baden-Wurttemberg, Germany).
Cells treated with the materials were permeabilized with 0.01% Triton X-100 in PBS. After blocking the resulting cells in 2% bovine serum albumin (BSA) in PBS, they were incubated at 4° C. with a primary antibody against SQSTM1/p62 (Santa Cruz) overnight. The stained cells were incubated with an Alexa594-conjugated secondary antibody (Invitrogen, Calif., USA). The images were examined under a Zeiss laser confocal microscope.

p-ERK = experiment: Immunoblot of ERK phosphorylation, U373MG cells; details: PD treatment, 24 hours
Protocol: FIGS. 10A to 10D show the results that PD-mediated autophagy inhibition is independent of mTOR and MAPK signaling pathways. FIGS. 10A to 10C show the results in which cells were treated with PD (0 μM, 0.5 μM, 1 μM, 5 μM, and 10 μM) for 24 hours. The immunoblot analyses for p-ULK1 (Ser757), ULK1, p-S6K (Thr389), p-AKT (Ser473), ERK2, P-ERK, p-JNK1, Beclin, and ATG7 were performed using lysates from GBMs. […] Total protein extracts were analyzed by immunoblot analyses for p-ERK, LC3B, and SQSTM1. GAPDH was used as an internal control.
Cells treated with the concentrations and materials described in FIGS. 1-3B, 7, 8, 10, 13, 16, 18, and 20 were lysed in buffer containing 20 mM Tris-HCl (pH 7.5), 150 mM NaCl, 1 mM EDTA, 1 mM Na2EDTA, 1 mM EGTA, 1% NP-40, 1% sodium deoxycholate, 1 mM Na3VO4, 1 mM MPI, 1 mM PMSF, and PI cocktails for 15 to 20 minutes on ice. Cell lysates were separated by SDS-PAGE and transferred to nitrocellulose membranes. […] The protein bands were detected with ECL western Blotting Substrate (Thermo Fisher Scientific, Waltham, Mass., USA).
Previous studies have shown that PD enhances autophagy via mTOR/MAPK pathway. […] It is known that mTORC1 activation, measured by S6K phosphorylation, inhibits autophagy initiation by phosphorylating the ULK1 (Ser 757). […]

U87MG and U373MG cells [2] = experiment: Clonogenic assay, GBM cells; details: PD 10 μM or 20 μM, 7 days
Protocol: FIGS. 19A and 19B show the results that MβCD restores PD-mediated decrease in cell viability. […] Data shown represent the means of quintuplicate measurements which were repeated three times. The results are presented as a percentage of control (means±SD).
Approximately 2×10^3 cells were seeded into each 6-well plate and then treated as described in FIG. 19. After 7 days, the cells were washed with PBS and stained with 0.5% crystal violet.
Furthermore, as can be confirmed in FIG. 19B, a colony formation assay was performed to confirm the effects of MβCD on PD-mediated GBM cell death.

Which results are given for `C[C@@H]1O[C@@H](O[C@H]2[C@H](OC(=O)[C@]34CCC(C)(C)C[C@H]3C3=CC[C@@H]5[C@@]6(C)C[C@H](O)[C@H](O[C@@H]7O[C@H](CO)[C@@H](O)[C@H](O)[C@H]7O)C(CO)(CO)[C@@H]6CC[C@@]5(C)[C@]3(C)C[C@H]4O)OC[C@H](O)[C@@H]2O)[C@H](O)[C@H](O)[C@H]1O[C@@H]1OC[C@@H](O)[C@H](O[C@@H]2OC[C@](O)(CO)[C@H]2O)[C@H]1O` [PD, platycodin D]?
p62 mRNA levels (SQSTM1 mRNA): did not alter; p62 staining and colocalization with GFP-LC3B puncta (U87MG and U373MG cells [1]): increase; phosphorylation levels of ERK (p-ERK): markedly increased; colony-forming ability (U87MG and U373MG cells [2]): abolished
